Source: patent EP0211573A1, “Novel antimicrobial active agent and its production” (NICHIREI CORPORATION, priority 1985, dated 1987)
Entries after “also recorded” stand apart in the source; their conditions may differ.

Experiments:
[1] = system: Bacillus subtilis; assay: Paper disc agar antimicrobial activity assay (inhibitory zone); assay type: cell-based; design: key to Diameter of inhibitory zone: ±: inhibitory zone slightly observed; +: inhibitroy zone < 7mm; details: paper disc 6 mm, 37 °C, 12 hours incubation
Method: (§1) The compound (Ia) dissolved in chloroform is immersed in paper disc, diameter 6 mm, and dried on a filter paper. Microbial strains shown in Table 1 are inoculated in agar medium, and paper discs hereinabove 1) are placed thereon then incubated at the temperature shown in the Table. Diameter of inhibitory zone is measured after 12 hours incubation.

[2] = system: Escherichia coli; assay: as above; assay type: cell-based; design: key to Diameter of inhibitory zone: ±: inhibitory zone slightly observed; +: inhibitroy zone < 7mm; details: paper disc 6 mm, 37 °C, 12 hours incubation
Method: as §1

[3] = system: Sarcina lutea; assay: as above; assay type: cell-based; design: key to Diameter of inhibitory zone: ±: inhibitory zone slightly observed; +: inhibitroy zone < 7mm; details: paper disc 6 mm, 37 °C, 12 hours incubation
Method: as §1

[4] = system: Saccharomyces sake; assay: as above; assay type: cell-based; details: paper disc 6 mm, 27 °C, 12 hours incubation, read-out: Diameter of inhibitory zone
Method: as §1

[5] = system: Staphylococcus aureus; assay: as above; assay type: cell-based; details: paper disc 6 mm, 37 °C, 12 hours incubation, read-out: Diameter of inhibitory zone
Method: as §1

[6] = Acute toxicity, intraperitoneal administration; details: mouse, in vivo, ip, mice, in physiological saline containing gum arabic, read-out: LD₅₀
Method: A compound, 1 - 5 mg, dissolved in physiological saline 0.2 ml containing gum arabic is administered intra peritoneally in mice, body weight 25 g, 10 mice in one group. LD₅₀ is over 200 mg/kg.

[7] = Physico-chemical properties (solubility, nature); assay type: physicochemical

COC1=C(OC)C(=O)c2c(O)c3c(c(O)c2C1=O)OCO3 [Ia, 5,8-dihydroxy-2,3-dimethoxy-6,7-methylenedioxy-1,4-naphthoquinone]
zone of inhibition at 14 µg/mL ([1]; Bacillus subtilis, sample density 14 μg/m ℓ, read-out: Diameter of inhibitory zone): 7.1 mm | zone of inhibition at 28 µg/mL ([1]; Bacillus subtilis, sample density 28 μg/m ℓ, read-out: Diameter of inhibitory zone): 9.5 mm | zone of inhibition at 56 µg/mL ([1]; Bacillus subtilis, sample density 56 μg/m ℓ, read-out: Diameter of inhibitory zone): 8.6 mm | zone of inhibition at 112 µg/mL ([1]; Bacillus subtilis, sample density 112 μg/m ℓ, read-out: Diameter of inhibitory zone): 13.3 mm | zone of inhibition at 224 µg/mL ([1]; Bacillus subtilis, sample density 224 μg/m ℓ, read-out: Diameter of inhibitory zone): 13.3 mm | zone of inhibition at 448 µg/mL ([1]; Bacillus subtilis, sample density 448 μg/m ℓ, read-out: Diameter of inhibitory zone): 15.5 mm | Diameter of inhibitory zone ([1]; sample density 7 μg/m ℓ): ±** | zone of inhibition at 112 µg/mL ([2]; Escherichia coli, sample density 112 μg/m ℓ, read-out: Diameter of inhibitory zone): < 7 mm | zone of inhibition at 224 µg/mL ([2]; Escherichia coli, sample density 224 μg/m ℓ, read-out: Diameter of inhibitory zone): < 7 mm | zone of inhibition at 448 µg/mL ([2]; Escherichia coli, sample density 448 μg/m ℓ, read-out: Diameter of inhibitory zone): < 7 mm | Diameter of inhibitory zone ([2]; sample density 56 μg/m ℓ): ± | zone of inhibition at 56 µg/mL ([3]; Micrococcus luteus, sample density 56 μg/m ℓ, read-out: Diameter of inhibitory zone): < 7 mm | zone of inhibition at 112 µg/mL ([3]; Micrococcus luteus, sample density 112 μg/m ℓ, read-out: Diameter of inhibitory zone): 7.4 mm | zone of inhibition at 224 µg/mL ([3]; Micrococcus luteus, sample density 224 μg/m ℓ, read-out: Diameter of inhibitory zone): 7.4 mm | zone of inhibition at 448 µg/mL ([3]; Micrococcus luteus, sample density 448 μg/m ℓ, read-out: Diameter of inhibitory zone): 7.4 mm | Diameter of inhibitory zone ([3]; sample density 14 μg/m ℓ): ± | Diameter of inhibitory zone ([3]; sample density 28 μg/m ℓ): ± | zone of inhibition at 56 µg/mL ([4]; sample density 56 μg/m ℓ): < 7 mm | zone of inhibition at 224 µg/mL ([4]; sample density 224 μg/m ℓ): 7 mm | zone of inhibition at 448 µg/mL ([4]; sample density 448 μg/m ℓ): 7.3 mm | zone of inhibition at 28 µg/mL ([5]; sample density 28 μg/m ℓ): < 7 mm | zone of inhibition at 56 µg/mL ([5]; sample density 56 μg/m ℓ): < 7 mm | zone of inhibition at 112 µg/mL ([5]; sample density 112 μg/m ℓ): < 7 mm | zone of inhibition at 224 µg/mL ([5]; sample density 224 μg/m ℓ): 7.7 mm | zone of inhibition at 448 µg/mL ([5]; sample density 448 μg/m ℓ): 8.45 mm | LD50 [6]: > 200 mg/kg | nature [7]: acidic substance (water soluble under alkaline conditions) | solubility ([7]; acidic conditions, in organic solvent): soluble | solubility ([7]; acidic conditions, in water): insoluble | solubility ([7]; alkaline conditions, in organic solvents): insoluble | solubility ([7]; alkaline conditions, in water): easily soluble; also recorded: easily soluble under neutral and acidic conditions in organic solvents such as methanol, acetone, ethyl acetate, chloroform or benzene; easily soluble under alkaline conditions in water | solubility ([7]; neutral and acidic conditions, in organic solvents such as methanol, acetone, ethyl acetate, chloroform or benzene): easily soluble; also recorded: easily soluble under neutral and acidic conditions in organic solvents such as methanol, acetone, ethyl acetate, chloroform or benzene; easily soluble under alkaline conditions in water
